Experimental data from ChEMBL document CHEMBL6127089, “Novel non-peptide uracil-derived human gonadotropin-releasing hormone receptor antagonists” (Eur J Med Chem, 2024).

target: T1, Gonadotropin-releasing hormone receptor (Homo sapiens, UniProt P30968); experiment: Antagonist activity at wild type HA-tagged human GnRH1 receptor expressed in HEK293T cells assessed as inhibition of GnRH peptide-stimulated IP1 accumulation by measuring GnRH peptide EC50 at 100 uM pretreated for 1 hr followed by stimulation with GnRH peptide for 1 hr (reference value: 2.5 nM); assay type: cell-based
T1 sequence (P30968 whole entry): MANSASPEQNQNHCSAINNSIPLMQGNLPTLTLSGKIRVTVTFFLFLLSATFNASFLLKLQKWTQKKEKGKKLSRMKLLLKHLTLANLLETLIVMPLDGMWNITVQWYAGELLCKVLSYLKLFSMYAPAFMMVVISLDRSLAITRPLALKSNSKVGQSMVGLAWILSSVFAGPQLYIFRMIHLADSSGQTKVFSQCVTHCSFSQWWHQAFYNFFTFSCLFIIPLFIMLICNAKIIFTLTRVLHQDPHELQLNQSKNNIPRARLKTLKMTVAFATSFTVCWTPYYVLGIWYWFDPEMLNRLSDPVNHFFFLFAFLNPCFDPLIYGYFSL

First: COc1cccc(-c2c(N[C@@H](CSCCCC(=O)O)c3ccccc3)nc(=O)n(Cc3c(F)cccc3C(F)(F)F)c2C)c1F
Second: COc1cccc(-c2c(SC[C@H](NCCCC(=O)O)c3ccccc3)nc(=O)n(Cc3c(F)cccc3C(F)(F)F)c2C)c1F
The EC50 of the first is 2.8-fold lower: 39 nM for the first, 110 nM for the second. The first is the more potent here.

`COc1cccc(-c2c(C)n(Cc3c(F)cccc3C(F)(F)F)c(=O)n(C[C@H](NCCCC(=O)O)c3ccccc3)c2=O)c1F` [ELAGOLIX] was tested, and the EC50 was 0.6 nM.
